Like-named read-outs stand apart in the source and are kept apart here.
Tests used:
[1] = test system: HAP1 MTAP-intact cell line; experiment: SDMA in-cell western assay, HAP1 MTAP-intact; conditions: Homo sapiens
[2] = test system: HAP1 MTAP-deleted cell line; experiment: SDMA in-cell western assay, HAP1 MTAP-deleted; conditions: for IC50 / IC90: Homo sapiens; for Hap1 MTAP intact/deleted ratio: IC50 ratio between HAP1 MTAP-intact and HAP1 MTAP-deleted cell line
MTAP-deleted cell line = experiment: viability assay for the MTAP-deleted cell line; assay type: cell-based; conditions: Homo sapiens, HAP1, viability assay
[3] = HAP1, read-out: Hap1 MTAP intact IC50, SDMA in-cell western, HAP1 MTAP-intact cell line
[4] = HAP1, read-out: Hap1 MTAP deleted IC50, SDMA in-cell western, HAP1 MTAP-deleted cell line
[5] = HAP1, read-out: Hap1 MTAP deleted IC90, SDMA in-cell western, HAP1 MTAP-deleted cell line
[6] = HAP1, read-out: Hap1 MTAP intact IC50, SDMA in-cell western assay, HAP1 MTAP-intact cell line
[7] = HAP1, read-out: Hap1 MTAP deleted IC50, SDMA in-cell western assay, HAP1 MTAP-deleted cell line
[8] = HAP1, read-out: Hap1 MTAP deleted IC90, SDMA in-cell western assay, HAP1 MTAP-deleted cell line

SMILES: Cc1nc2cc([C@H]3CC[C@H](C)CN3C(=O)C(=O)Nc3cnc(N)c4cn[nH]c34)ccc2s1 [Compound 181, N-(4-amino-1H-pyrazolo[4,3-c]pyridin-7-yl)-2-((2R,5S)-5-methyl-2-(2-methylbenzo[d]thiazol-5-yl)piperidin-1-yl)-2-oxoacetamide]
- IC50 [1, 3]: 5 to 50 nM
- IC50 [2, 4]: < 5 nM
- IC90 [2, 5]: < 75 nM
- Hap1 MTAP intact/deleted ratio ([2]; SDMA in-cell western): C (“C” indicates an IC50 ratio of less than 15 fold)
- IC50 (MTAP-deleted cell line): < 100 nM

SMILES: C[C@H]1CC[C@H](c2ccc3sc(C4=CCN(C)CC4)nc3c2)N(C(=O)C(=O)Nc2cncc3cn[nH]c23)C1 [Compound 182, 2-((2R,5S)-5-methyl-2-(2-(1-methyl-1,2,3,6-tetrahydropyridin-4-yl)benzo[d]thiazol-5-yl)piperidin-1-yl)-2-oxo-N-(1H-pyrazolo[4,3-c]pyridin-7-yl)acetamide]
- IC50 [1, 3]: > 50 nM
- IC50 [2, 4]: < 5 nM
- IC90 [2, 5]: < 75 nM
- Hap1 MTAP intact/deleted ratio ([2]; SDMA in-cell western): A (“A” indicates an IC50 ratio greater than or equal to 30 fold)
- IC50 (MTAP-deleted cell line): < 100 nM

SMILES: C[C@H]1CC[C@H](c2ccccc2)N(C(=O)C(=O)Nc2cnc(N)c3c2cnn3C)C1 [Compound 194, N-(7-amino-1-methyl-1H-pyrazolo[3,4-c]pyridin-4-yl)-2-((2R,5S)-5-methyl-2-phenylpiperidin-1-yl)-2-oxoacetamide]
- IC50 [1, 3]: > 50 nM
- IC50 [2, 4]: < 5 nM
- IC90 [2, 5]: < 75 nM
- Hap1 MTAP intact/deleted ratio ([2]; SDMA in-cell western): B (“B” indicates an IC50 ratio greater than or equal to 15 fold but lower than 30 fold)
- IC50 (MTAP-deleted cell line): < 100 nM

SMILES: C[C@H]1CC[C@H](c2cccc(CCN(C)C)c2)N(C(=O)C(=O)Nc2cnc(N)c3c2cnn3C)C1 [Compound 197, N-(7-Amino-1-methyl-pyrazolo[3,4-c]pyridin-4-yl)-2-oxo-2-[(2R,5S)-2-[3-[2-(dimethylamino)ethyl]phenyl]-5-methyl-1-piperidyl]acetamide]
- IC50 [1, 6]: 5 to 50 nM
- IC50 [2, 7]: < 5 nM
- IC90 [2, 8]: < 75 nM
- Hap1 MTAP intact/deleted ratio ([2]; SDMA in-cell western assay): C (“C” indicates an IC50 ratio of less than 15 fold)
- IC50 (MTAP-deleted cell line): < 100 nM

SMILES: C[C@H]1CC[C@H](c2ccc3scnc3c2)N(C(=O)C(=O)Nc2cnc(N)c3c2cnn3C)C1 [Compound 199, N-(7-Amino-1-methyl-pyrazolo[3,4-c]pyridin-4-yl)-2-oxo-2-[(2R,5S)-2-(1,3-benzothiazol-5-yl)-5-methyl-1-piperidyl]acetamide]
- IC50 ([1]; HAP1, read-out: Hap1 MTAP intact IC50): 5 to 50 nM
- IC50 [2, 7]: < 5 nM
- IC90 [2, 8]: < 75 nM
- Hap1 MTAP intact/deleted ratio ([2]; SDMA in-cell western assay): C (“C” indicates an IC50 ratio of less than 15 fold)
- IC50 (MTAP-deleted cell line): < 100 nM

SMILES: C[C@H]1CC[C@H](c2ccc(CCN(C)C)cc2)N(C(=O)C(=O)Nc2cnc(N)c3c2cnn3C)C1 [Compound 202, N-(7-Amino-1-methyl-pyrazolo[3,4-c]pyridin-4-yl)-2-oxo-2-[(2R,5S)-2-[4-[2-(dimethylamino)ethyl]phenyl]-5-methyl-1-piperidyl]acetamide]
- IC50 [1, 6]: 5 to 50 nM
- IC50 [2, 7]: < 5 nM
- IC90 [2, 8]: < 75 nM
- Hap1 MTAP intact/deleted ratio ([2]; SDMA in-cell western assay): C (“C” indicates an IC50 ratio of less than 15 fold)
- IC50 (MTAP-deleted cell line): < 100 nM

SMILES: C[C@H]1CC[C@H](c2ccccc2)N(C(=O)C(=O)Nc2cnc(N)c3c2OCC3)C1 [Compound 214]
- IC50 [1, 6]: > 50 nM
- IC50 [2, 7]: 5 to 50 nM
- IC90 [2, 8]: > 125 nM
- Hap1 MTAP intact/deleted ratio ([2]; SDMA in-cell western assay): B (“B” indicates an IC50 ratio greater than or equal to 15 fold but lower than 30 fold)
- IC50 (MTAP-deleted cell line): 100 to 1000 nM

SMILES: COc1cc([C@H]2CC[C@H](C)CN2C(=O)C(=O)Nc2cnc(N)c3cn[nH]c23)cc(C)n1 [Compound 219, N-(4-Amino-1H-pyrazolo[4,3-c]pyridin-7-yl)-2-oxo-2-[(2R,5S)-2-(2-methoxy-6-methyl-4-pyridyl)-5-methyl-1-piperidyl]acetamide]
- IC50 [1, 6]: > 50 nM
- IC50 [2, 7]: < 5 nM
- IC90 [2, 8]: < 75 nM
- Hap1 MTAP intact/deleted ratio ([2]; SDMA in-cell western assay): A (“A” indicates an IC50 ratio greater than or equal to 30 fold)
- IC50 (MTAP-deleted cell line): < 100 nM

SMILES: COc1cc([C@@H]2CC[C@H](C)CN2C(=O)C(=O)Nc2cnc(N)c3cn[nH]c23)ccn1 [Compound 274]
- IC50 [1, 6]: > 50 nM
- IC50 [2, 7]: 5 to 50 nM
- IC90 [2, 8]: > 125 nM
- Hap1 MTAP intact/deleted ratio ([2]; SDMA in-cell western assay): B (“B” indicates an IC50 ratio greater than or equal to 15 fold but lower than 30 fold)
- IC50 (MTAP-deleted cell line): 100 to 1000 nM

SMILES: CCOc1cc([C@@H]2CC[C@H](C)CN2C(=O)C(=O)Nc2cnc(N)c3cn[nH]c23)ccn1 [Compound 275]
- IC50 [1, 6]: > 50 nM
- IC50 [2, 7]: 5 to 50 nM
- IC90 [2, 8]: > 125 nM
- Hap1 MTAP intact/deleted ratio ([2]; SDMA in-cell western assay): C (“C” indicates an IC50 ratio of less than 15 fold)
- IC50 (MTAP-deleted cell line): 100 to 1000 nM

— patent publication US20250163048A1 (Tango Therapeutics, Inc., priority 2022, published 2025)
